The record followed here is publication PMC6814236, “Monitoring and characterizing soluble and membrane-bound ectonucleotidases CD73 and CD39” (PLoS ONE, 2019).

The target of experiment [1] is T1, membrane-associated CD73 of MDA-MB-231 cells (Homo sapiens, UniProt P21589).
T1 construct: cell-based membrane-associated CD73 from MDA-MB-231 following AMP-Glo cell-based assay; endogenous in cells; host or cells: MDA-MB-231
T1 sequence (P21589 27-574): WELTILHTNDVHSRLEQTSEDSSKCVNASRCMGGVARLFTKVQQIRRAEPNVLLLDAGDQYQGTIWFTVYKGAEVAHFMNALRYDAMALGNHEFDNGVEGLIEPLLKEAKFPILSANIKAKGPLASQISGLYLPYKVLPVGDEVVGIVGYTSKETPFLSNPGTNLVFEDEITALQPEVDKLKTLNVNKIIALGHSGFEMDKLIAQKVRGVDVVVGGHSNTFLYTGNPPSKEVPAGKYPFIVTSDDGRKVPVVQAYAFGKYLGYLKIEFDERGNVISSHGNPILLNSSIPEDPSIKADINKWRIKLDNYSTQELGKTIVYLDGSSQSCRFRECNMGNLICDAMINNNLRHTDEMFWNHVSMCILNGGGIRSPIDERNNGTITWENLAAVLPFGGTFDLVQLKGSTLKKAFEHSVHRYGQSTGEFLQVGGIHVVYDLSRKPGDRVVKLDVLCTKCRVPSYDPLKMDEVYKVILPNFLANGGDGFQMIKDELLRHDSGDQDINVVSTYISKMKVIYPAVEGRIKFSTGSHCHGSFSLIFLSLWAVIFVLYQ
Description: Cell-based membrane-associated CD73 activity (AMP-Glo cell-based assay). The procedure: • Adherent Cells preparation and assay protocol. Cells grown in 75cm^2 flasks were trypsinized and counted, and were diluted with full medium, and plated to a tissue culture grade solid white or clear bottom plate, at cell density of 25K cells in full medium (10% FBS and 1% Pen/Strep) per well, and kept overnight at 37°C in a 5% CO2 incubator. Fresh medium was added an hour before use by pipetting out ¾ volume of overnight medium from each well and replaced with a ¾ volume of fresh full growing medium. Cells were washed twice with HBSS by taking out whole medium from each well and replaced with fresh 100μl of HBSS to each well. […]
For CD73 activity using AMP as substrate, 25μl aliquots were withdrawn from each well at the desired time point and added to assay solid white plate (Corning Costar 3912 or equivalent) followed by the addition of 25μl of AMP-Glo™ Reagent I to each well, mixed well and incubated for 30min at 23°C.This was followed by the addition of 50μl per well of AMP-Glo™ Detection Solution (1ml of Kinase-Glo™ One Solution mixed with 10μl of AMP-Glo™ Reagent II), see AMP-Glo™ TM#384. This was followed by incubating the mixture for 60min at 23°C, before reading the plate using a luminometer. […]

In experiment [2] the test system is T2, membrane-associated CD39 of Farage cells.
T2 construct: endogenous in cells; host or cells: Farage
Description: Cell-based membrane-associated CD39 activity. Details: species or system human. As to conditions: 50μM inhibitor, Farage cells 200K per ml, 5 μM ATP, 37°C. The protocol:
For CD39 activity, since it uses both ADP and ATP, we determined its activity using 5 μM final concentration each, as substrate as described above. In a separate plate or microcentrifuge tube, a 25μl aliquots were withdrawn from each well at desired time point and delivered into an assay solid white plate (Corning Costar 3912 or equivalent).
For ADP as substrate, detection of remaining ADP was carried out by preparing AMP Detection Solution (adding 10μl AMP-Glo™ Reagent II to one-ml of Kinase-Glo® One Solution, gently mixing well by inverse tube couple times). To the 25 μl aliquoted from the medium supernatant that was cooled down to room temperature, 25μl of AMP Detection Solution is added to each well, mixed well and incubated for 60min at 23°C, the plates were read using luminometer.
For ATP as substrate, detection of remaining ATP, was carried out using 25μl withdrawn from the medium supernatant that was cooled down to room temperature and 25μl of Kinase-Glo® One Solution were added to each well, mixed well and incubated for 10min at 23°C, then the plate was read using luminometer.
• B Suspension cells. Cells were harvested and washed two times with HBSS by centrifugation at 1,000 rpm at room temperature for 8~10min, discarding the supernatant and cell pellets were diluted to a desired cell number per ml before experiments. […]

As for `Nc1ncnc2c1ncn2[C@@H]1O[C@H](COP(=O)(O)CP(=O)(O)O)[C@@H](O)[C@H]1O` [AMP-CP, Adenosine 5'-(α, β-methylene) diphosphate], the “inhibition of membrane-associated CD73 activity” value in experiment [1] (50μM inhibitor, 25k MDA-MB-231 cells per well, 10μM AMP, 37°C, time course) was “inhibited”. For the same compound, the IC50 (as a rule, the concentration that inhibits the measured activity by half) in experiment [1] (25K cells per well, 5μM AMP, 90min at 37°C) was 2100 nM.
As for `[Na+].[Na+].[Na+].[Na+].[Na+].[Na+].[O]=[W](=[O])([O-])[O-].[O]=[W](=[O])([O-])[O-].[O]=[W](=[O])([O-])[O-].[O]=[W](=[O])=[O].[O]=[W](=[O])=[O].[O]=[W](=[O])=[O].[O]=[W](=[O])=[O].[O]=[W](=[O])=[O].[O]=[W](=[O])=[O].[O]=[W](=[O])=[O].[O]=[W](=[O])=[O].[O]=[W](=[O])=[O]` [POM1, Sodium metatungstate], in experiment [2], the “inhibition of membrane-associated CD39 activity” value is “inhibited”.
